From patent EP1660440B1, “ACYLOXYALKYL CARBAMATE PRODRUGS, METHODS OF SYNTHESIS AND USE” (priority 2003, dated 2005)
Like-named read-outs stand apart in the source and are kept apart here.

Legend:
[1] = tested on: Caco-2 cells; details: human, Caco-2, 200 uM
[2] = tested on: Pancreatin; test: Pancreatin stability; assay type: in vitro ADME, porcine; details: 1 % (w/v) pancreatin, 5 µM, pH 7.5, 37 °C, after 60 min
Experimental: Pancreatin Stability: Stability studies were conducted by incubating prodrug (5 µM) with 1 % (w/v) pancreatin (Sigma, P-1625, from porcine pancreas) in 0.025 M Tris buffer containing 0.5 M NaCl (pH 7.5) at 37 °C for 60 min. The reaction was stopped by addition of 2 volumes of methanol. After centrifugation at 14,000 rpm for 10 min, the supernatant was removed and analyzed by LC/MS/MS.

[3] = aqueous buffer, 1 h
[4] = rat, plasma, 1 h, 2 µM
[5] = human, plasma, 1 h, 2 µM
[6] = rat, s9, 1 h, 2 µM
[7] = human, s9, 1 h, 2 µM
[8] = human, s9, 1 h, 5 µM

Structure (SMILES) | Ratio A-BB-A [1] | % of Baclofen Released [2] [%] | % of Prodrug Remaining [2] [%] | % of Baclofen Released ([3]; pH 2) [%] | % of Prodrug Remaining ([3]; pH 2) [%] | % of Baclofen Released ([3]; pH 7.4) [%] | % of Prodrug Remaining ([3]; pH 7.4) [%] | % of Baclofen Released ([3]; pH 8) [%] | % of Prodrug Remaining ([3]; pH 8) [%] | % of Baclofen Released [4] [%] | % of Prodrug Remaining [4] [%] | % of Baclofen Released [5] [%] | % of Prodrug Remaining [5] [%] | % of Baclofen Released [6] [%] | % of Prodrug Remaining [6] [%] | % of Baclofen Released [7] [%] | % of Prodrug Remaining [7] [%] | % of Baclofen Released [8] [%] | % of Prodrug Remaining [8] [%]
COc1ccc(C(=O)OCOC(=O)NC[C@H](CC(=O)[O-])c2ccc(Cl)cc2)cc1.[Na+] [(53), Sodium 4-[(4-Methoxybenzoyloxymethoxy)carbonylamino]-(3R)-(4-chlorophenyl)-butan oate] | 2.4 | – | – | – | – | – | – | – | – | – | – | – | – | – | – | – | – | – | –
CCCC(=O)OC(C)OC(=O)NC[C@H](CC(=O)[O-])c1ccc(Cl)cc1.[Na+] (stereo partly drawn) [(32), Sodium 4-[(1-Butanoyloxyethoxy)carbonylamino]-(3R)-(4-chlorophenyl)-butanoate] | 7.6 | – | – | – | – | – | – | – | – | – | – | – | – | – | – | – | – | – | –
CCCC(OC(=O)NC[C@H](CC(=O)[O-])c1ccc(Cl)cc1)OC(=O)c1ccccc1.[Na+] (stereo partly drawn) [(71), Sodium 4-[(1-Benzoyloxybutoxy)carbonylamino]-(3R)-(4-chlorophenyl)-butanoate] | 7.1 | – | – | – | – | – | – | – | – | – | – | – | – | – | – | – | – | – | –
O=C([O-])C[C@@H](CNC(=O)OCOC(=O)c1ccccc1)c1ccc(Cl)cc1.[Na+] [(12), Sodium 4-[(Benzoyloxymethoxy)carbonylamino]-(3R)-(4-chlorophenyl)-butanoate] | 5.9 | 77 | 15 | 0 | 100 | 0 | 100 | 0 | 105 | 14 | 72 | 5 | 95 | 100 | 3 | 100 | 1 | 100 | 2
CCCC(=O)OC(CCC)OC(=O)NC[C@H](CC(=O)[O-])c1ccc(Cl)cc1.[Na+] (stereo partly drawn) [(73), Sodium 4-[(1-Butanoyloxybutoxy)carbonylamino]-(3R)-(4-chlorophenyl)-butanoate] | 3.2 | – | – | – | – | – | – | – | – | – | – | – | – | – | – | – | – | – | –
CCC(=O)OC(OC(=O)NC[C@H](CC(=O)[O-])c1ccc(Cl)cc1)C(C)C.[Na+] (stereo partly drawn) [(48), Sodium 4-[(1-Propanoyloxyisobutoxy)carbonylamino]-(3R)-(4-chlorophenyl)-butanoate] | 6.5 | – | – | – | – | – | – | – | – | – | – | – | – | – | – | – | – | – | –
CCCC(OC(=O)NC[C@H](CC(=O)[O-])c1ccc(Cl)cc1)OC(=O)C(C)C.[Na+] (stereo partly drawn) [(72), Sodium 4-[(1-Isobutanoyloxybutoxy)carbonylamino]-(3R)-(4-chlorophenyl)-butanoate] | 3.5 | – | – | – | – | – | – | – | – | – | – | – | – | – | – | – | – | – | –
CC(=O)OC(OC(=O)NC[C@H](CC(=O)[O-])c1ccc(Cl)cc1)C(C)C.[Na+] (stereo partly drawn) [(23), Sodium 4-[(1-Acetoxylsobutoxy)carbonylamino]1-(3R)-(4-chlorophenyl)-butanoate] | – | 24 | 82 | 0 | 107 | 1 | 89 | 2 | 90 | 93 | 11 | 3 | 96 | 107 | 3 | 105 | 4 | 87 | 15
CCCC(=O)OC(CC)OC(=O)NC[C@H](CC(=O)[O-])c1ccc(Cl)cc1.[Na+] (stereo partly drawn) [(78), Sodium 4-[(1-Butanoyloxypropoxy)carbonylamino]-(3R)-(4-chlorophenyl)-butanoate] | 7.9 | – | – | – | – | – | – | – | – | – | – | – | – | – | – | – | – | – | –
O=C([O-])C[C@@H](CNC(=O)OCOC(=O)c1cccs1)c1ccc(Cl)cc1.[Na+] [(57), Sodium 4-[(2-Thienylcarbonyloxymethoxy)carbonylamino]-(3R)-(4-chlorophenyl)-butan oate] | – | 75 | 12 | 0 | 100 | 0 | 100 | 0 | 100 | 10 | 82 | 14 | 73 | 78 | 2 | 86 | 1 | 104 | 2
CCCC(OC(C)=O)OC(=O)NC[C@H](CC(=O)[O-])c1ccc(Cl)cc1.[Na+] (stereo partly drawn) [(74), Sodium 4-[(1-Acetoxybutoxy)carbonylamino]-(3R)-(4-chlorophenyl)-butanoate] | 11.2 | – | – | – | – | – | – | – | – | – | – | – | – | – | – | – | – | – | –
CCCC(=O)OC(OC(=O)NC[C@H](CC(=O)[O-])c1ccc(Cl)cc1)C1CCCCC1.[Na+] (stereo partly drawn) [(85), Sodium 4-[(1-Butanoyloxy-1-cyclohexylmethoxy)carbonylamino]-(3R)-(4-chlorophenyl)-butanoate] | – | 64 | 15 | 0 | 82 | 0 | 92 | 0 | 93 | 12 | 82 | 4 | 95 | 91 | 2 | 84 | 2 | 82 | 4
CC(OC(=O)NC[C@H](CC(=O)[O-])c1ccc(Cl)cc1)OC(=O)C(C)C.[Na+] (stereo partly drawn) [(33), Sodium 4-[(1-Isobutanoyloxyethoxy)carbonylamino]-(3R)-(4-chlorophenyl)-butanoate] | – | 52 | 46 | 0 | 100 | 0 | 72 | 0 | 101 | 30 | 73 | 4 | 96 | 101 | 4 | 101 | 3 | 95 | 3
CC(C)CC(=O)OCOC(=O)NC[C@H](CC(=O)[O-])c1ccc(Cl)cc1.[Na+] [(59), Sodium 4-[(3-Methylbutanoyloxymethoxy)carbonylamino]-(3R)-(4-chlorophenyl)-butano ate] | – | 50 | 46 | 0 | 103 | 1 | 103 | 2 | 97 | 85 | 2 | 11 | 77 | 85 | 2 | 82 | 1 | 104 | 3
CC(OC(=O)NC[C@H](CC(=O)[O-])c1ccc(Cl)cc1)OC(=O)C(C)(C)C.[Na+] (stereo partly drawn) [(36), Sodium 4-[(1-Pivaloyrloxyethoxy)carbonylamino]-(3R)-(4-chlorophenyl)-butanoate] | 1.5 | – | – | – | – | – | – | – | – | – | – | – | – | – | – | – | – | – | –
